# Measured values from patent US20120301866A1, “LIQUID FORMULATION HAVING DISSOLVED GASES USEFUL FOR PRESERVING BIOLOGICAL MATERIAL” (L'Air Liquide, Société Anonyme pour I'Etude et …, priority 2010, published 2012).
# “Also recorded” adds a separate entry of the source.
# Legend:
# Type in all cases: in vivo
# rat kidneys [1] = assay: Immunohistochemistry of transplanted rat kidneys (anti-active caspase-3, anti-CD10); conditions: day 14 after transplantation; for active caspase-3 expression (immunohistochemistry): marker for apoptosis
# Experimental: In order to evaluate the renal graft preservation properties of argon or other gases, rat kidneys were removed and stored in a gas-saturated liquid solution according to the present invention. After six hours of organ preservation at a temperature of 4° C. and at atmospheric pressure, the rat kidneys are transplanted and the survival time, renal function and reperfusion/ischemia injuries are studied by means of biochemical and histological analyses. Immunodetections were carried out on serial cryostat sections 5 μm thick, using certain specific antibodies, i.e. anti-active caspase-3 and anti-CD10. The kidneys of a normal rat are used as control. After having been rinsed, the sections are incubated for 30 minutes with biotinylated secondary antibodies and they are then visualized using avidin-biotin peroxidase.
# rat kidneys [2] = assay: Histology of transplanted rat kidneys (hematoxylin-eosin-safran, optical microscopy); conditions: day 14 after transplantation; kidney stored 6 h at 4 °C in gas-saturated solution
# Experimental: (§1) In order to evaluate the renal graft preservation properties of argon or other gases, rat kidneys were removed and stored in a gas-saturated liquid solution according to the present invention.
# (§2) After six hours of organ preservation at a temperature of 4° C. and at atmospheric pressure, the rat kidneys are transplanted and the survival time, renal function and reperfusion/ischemia injuries are studied by means of biochemical and histological analyses.
# On day 14 after transplantation, the kidneys are removed, weighed and cut into blocks. The kidneys are then fixed with a buffered 4% formaldehyde infusion for 24 h and they are embedded in paraffin. Five-micrometer sections are obtained from the blocks and stained with hematoxylin-eosin-safran in order to examine them by optical microscopy.
# rat kidneys [3] = assay: Rat kidney transplantation after cold storage in gas-saturated Celsior solution: renal function (creatinine clearance, urinary albumin); conditions: for overall effect on the preservation of a renal graft: compared with the other experimental groups; for level of albumin in the urine (urinary albumin): kidney stored 6 h at 4 °C, atmospheric pressure, in gas-saturated Celsior, days 7 and 14 after transplantation
# Experimental: In accordance with the present invention, argon gas was dissolved in a liquid organ preservation solution available on the market, i.e. the CELSIOR solution, the composition of which is given in table 1, in order to obtain a liquid formulation in accordance with the present invention.
# For the purposes of comparison, other gases, i.e. xenon, air and nitrogen, were dissolved in the same type of liquid solution.
# as §1, §2
# On days 0 (pretransplantation), 7 and 14 (after transplantation), biochemical analyses, i.e. creatinine clearance and urinary albumin, are carried out in the manner described by M. Yin et al., in “Carolina rinse solution minimizes kidney injury and improves graft function and survival after prolonged cold ischemia.” Transplantation 2002; 73:1410-1420).
# Creatinine clearance is a parameter that is used to evaluate renal function. A high clearance corresponds to good renal function, while the presence of albumin in the urine (urinary albumin) indicates renal damage since, normally, there is no albumin in the urine when the kidney is normal.
Structure (SMILES),active caspase-3 expression (immunohistochemistry) (rat kidneys [1]),CD10 expression (immunohistochemistry) (rat kidneys [1]; weak CD10 expression corresponds to a damaged kidney),histological observations of transverse kidney sections (rat kidneys [2]),overall effect on the preservation of a renal graft (rat kidneys [3]),level of albumin in the urine (urinary albumin) (rat kidneys [3])
"N#N [nitrogen, reference compound]",significant expression of active caspase-3,–,–,–,–
[Ar] [argon],discrete and focal losses,discrete and focal losses of CD 10 expression,"the architectural integrity of the kidney is preserved without any obvious glomerular modification; also recorded: intact normal morphology as in the control group, with no modification nor any necrosis",very positive and advantageous effects,much lower than the levels of albumin (urinary albumin) obtained with the other transplanted kidneys
"[Xe] [xenon, reference compound]",the active caspase-3 expression has been lost because of the serious acute tubular necrosis,–,–,some good effects,"an effect greater than that which was obtained with the controls, but which is less than that obtained with argon"
